This assay has as its target T1, ChoKα1 (choline kinase α1) (Homo sapiens, UniProt P35790).
T1 construct: gene CHKA; truncated form of ChoKα1 (Δ75–457), N-terminal 6x His-tag
Briefly: radiometric assay: [methyl-14C]choline to phosphocholine by purified recombinant enzyme, TLC and scintillation counting. It counts as biochemical.

T1 sequence (P35790 75-457): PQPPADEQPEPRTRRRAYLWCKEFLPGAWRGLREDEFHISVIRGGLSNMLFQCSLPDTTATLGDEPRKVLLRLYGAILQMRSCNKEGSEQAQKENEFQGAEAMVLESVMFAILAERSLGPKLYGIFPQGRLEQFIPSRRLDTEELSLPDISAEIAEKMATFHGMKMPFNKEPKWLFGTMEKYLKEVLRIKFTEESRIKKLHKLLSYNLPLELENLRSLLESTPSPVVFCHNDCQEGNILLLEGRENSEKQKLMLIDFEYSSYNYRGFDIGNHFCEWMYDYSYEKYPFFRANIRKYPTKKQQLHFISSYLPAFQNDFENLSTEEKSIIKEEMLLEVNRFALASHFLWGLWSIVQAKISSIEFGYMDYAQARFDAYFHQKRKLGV

One may read the IC50 as the concentration that inhibits the measured activity by half. As for `Clc1ccc2c(N3CCCC3)cc[n+](Cc3ccc(SCCSc4ccc(C[n+]5ccc(N6CCCC6)c6ccc(Cl)cc65)cc4)cc3)c2c1` [PL48], the 50% inhibitory concentration (IC50) is 0.658 ± 0.067 µM.

Values taken from paper PMC8876215, “Anticancer Activity of the Choline Kinase Inhibitor PL48 Is Due to Selective Disruption of Choline Metabolism and Transport Systems in Cancer Cell Lines” (Pharmaceutics, 2022).
